Results: patent publication US20240287104A1, “NUCLIDE LABELLED H-TETRAZINES AND USE THEREOF FOR PET AND SPECT PRETARGETED IMAGING AND RADIONUCLIDE THERAPY” (RIGSHOSPITALET, priority 2020, published 2024)

Legend:
[1] = Stability in phosphate-buffered saline (PBS) by analytical HPLC; type: physicochemical; conditions: 12 h at 37° C.; for Stability in PBS (degradation): analytical HPLC
Procedure: The in vitro stability of UB108 and UB137 was assessed by analytical HPLC in Phosphate-buffered saline (PBS), Example 13 for UB108. […] Consequently, the organotin precursors were synthesized with an unoptimized synthetic strategy (FIG. 6, Examples 101 and 110). Radiolabeling succeeded in a one-pot, two step sequence with a RCY (d.c.) of approx. 10% and an overall synthesis time of ca. 90 minutes including synthesis, separation and formulation steps. An activity yield of 636 MBq starting from 11 GBq fluoride-18, and RCP of 98% at EOS was observed (FIGS. 6 and 11). UB137 could be labeled with similar results (FIGS. 6 and 7). The tetrazine ligation of ^18F-UB108 with s-TCO occurred rapidly, forming ligation products after click reaction (FIG. 11). Stability evaluation was completed for the formulated compound ^18F-UB108 in PBS at room temperature. […] UB137 could be labeled with similar results.
The shelf stability of UB-108 was assessed in phosphate-buffered saline (PBS) by analytical-HPLC. […] Consequently, the stannane precursor was synthesized in 4 steps (example 98-101 Radiolabeling succeeded in a one-pot, two-step sequence with a RCY (d.c.) of 11±3% (n=4) and an overall synthesis time of ca. 90 minutes including synthesis, separation and formulation. [^18F]-UB108 was obtained with an Am of 134±22 GBq/μmol (d.c.), a RCP of ≥99% (n=4) and an activity yield of 600-700 MBq (EOS) starting from ˜12 GBq fluoride-18. [^18F]-UB108 was stable in PBS at room temperature for minimum 4 h and rapidly reacted with TCO-PNP carbonate (23) as confirmed by radio-HPLC. Residual amounts of Cu and Sn in the final formulated solution were analyzed by ICP-MS and found to be well below the allowed limits specified in the ICH Guidelines (41-60 and 2.3-3.0 μg/L vs. 300 and 600 μg/day, respectively).

[2] = system: CC49-TCO pretargeted LS174T tumor xenografts; experiment: Blocking experiments with [111In]Q (Example 126, FIG. 3); type: in vivo, nude BALB/c mice; conditions: FIG. 3, cold 19F-Tz 2 h before [111In]Q
Procedure: In this respect, we designed two highly reactive Tzs, which allowed ^18F-labeling and respective introduction of polar groups (FIG. 4-8). UB137 and UB108 were synthesized in sufficient yields via a Pinner-like synthesis as described in Example 97 and 106 and their ability to be used in pretargeted imaging were evaluated. The results were compared with the performance of compounds UB-65 and RGV-52 (FIG. 3). Efficiency in vivo was tested in an ex vivo screening assay lately published by our group and is inspired by traditional receptor blocking studies. In short, tumour-bearing mice are injected with a validated TCO-modified pretargeting vector 72 h before a test ^19F-Tz is administered. Subsequently after 2 hours, a pretargeted established ^111In-DOTA-Tz (Q)[6] is administered to the same mouse. […] In this manner, the blocking ability of the cold ^19F-Tz can be evaluated. […]
All animal studies were approved by the Danish Animal Welfare Council, ministry of Justice. […] Tumors were measured using a caliper and the volume calculated using the formula volume=½(length×width^2).
These blocking experiments were made using the method described in Example 125. […] All tissues were weighted and the radioactivity measured in a gamma counter (Wizard2, Perkin Elmer) and data was corrected for decay, tissue weight and injected amount of radioactivity. […]

[3] = Second-order rate constants by stopped-flow spectrophotometry, TCO-PEG4 in DPBS at 37° C.; type: physicochemical; conditions: value of the Tz-scaffold: representative tetrazine with TCO-PEG4, n ≥ 4
Procedure: A structurally diverse library of 45 Tz-derivatives was prepared (FIG. 15), covering a wide spectrum of physicochemical properties, in particular calculated TPSAs between 60-350 Å2 and different lipophilicities, with calculated log D7.4 values (c log D7.4) ranging from approximately −7.0 to 2.5 (Table 5). The Tz-scaffolds (A-L) include mono- and disubstituted methyl-, phenyl-, 2-pyrimidyl-, and 2-pyridyl-substituted Tz-derivatives with second-order rate constants for the reaction with TCO ranging from 1.4 to 230 M^−1 s^−1 in 1,4-dioxane at 25° C., and from 1,100 to 73,000 M^−1 s^−1 in buffered aqueous solution at 37° C. […] Several compounds were obtained as copper(II) complexes (for details see the Supporting Information), which was taken into account in the calculation of c log D7.4 and TPSA. The distribution coefficient at physiological pH (log D7.4) and TPSA were calculated using the software Chemicalize. Tetrazines conjugated to DOTA were calculated with chelated trivalent cations, Tzs with other chelators with bivalent cations. Second-order rate constants for the Tz scaffolds A-L were determined by stopped-flow spectrophotometry (n≥4), monitoring the reaction of representative tetrazines with unsubstituted trans-cyclooctene (TCO) at 25° C. in 1,4-dioxane, and with TCO-PEG4 (modified TCO-5ax-OH, ‘minor-TCO’) in Dulbecco's phosphate buffered saline (DBPS) at 37° C. n≥3.

[4] = system: CC49-TCO pretargeted LS174T colon carcinoma xenografts; experiment: Pretargeted blocking assay with [111In]Q (Example 140); type: in vivo, BALB/c mice; conditions: for Blocking effect: unlabeled Tz i.v. 72 h after CC49-TCO and 1 h before [111In]Q, change in tumor uptake 22 h p.i., normalized to unblocked group
Procedure: All animal studies were approved by the Danish Animal Welfare Council, ministry of Justice. Five weeks old female nude BALB/c mice (Charles River, Sulzfeld, Germany) were allowed to acclimatize for one week with access to water and chow ad libitum. Human colon cancer cell line (LS174T; obtained from ATCC) was cultured in minimum essential medium (MEM) supplemented with 10% fetal bovine serum, 1% L-Glutamine, 1% Sodium pyruvate, 1% non-essential amino acids, and 1% penicillin-streptomycin at 37° C. and 5% CO2. Cells were harvested by trypsination at a confluence of 70-90% and subcutaneous tumors were established in the left flank of the 6 weeks old animals by inoculation of ˜5×10^6 LS174T cells resuspended in sterile PBS (100 μL) and allowed to grow for 7-10 days. Tumors were measured using a caliper and the volume calculated using the formula volume=½(length×width^2).
The assay was inspired by receptor blocking experiments and based on the pretargeted imaging approach reported by Rossin et al. An ^111In-labeled Tz [^111In]Q was used in pair with TCO-modified CC49, a non-internalizing mAb that targets the tumor-associated glycoprotein 72 (TAG72), as a benchmark model for the in vivo ligation.
The TCO-modification of CC49 was carried out according to Rossin et al. To study the in vivo ligation performance of Tz-derivatives 1a-45a, BALB/c mice bearing LS174T colon carcinoma xenografts were injected intravenously (i.v.) with CC49-TCO 72 h prior to i.v. injection of the unlabeled Tz, followed by administration of [^111In]Q 1 h later. The animals were euthanized after 22 h and an ex vivo biodistribution was carried out to quantify the tumor uptake of [111 In]Q (FIG. 15). The efficiency of the in vivo ligation of the unlabeled Tz can thus be correlated to a reduced uptake of [111 In]Q (FIG. 15). As a control, blocking was performed using the non-radioactive precursor of [^111In]Q, which blocked ≥99% of the [^111In]Q tumor uptake. A group of CC49-TCO pretreated mice were injected exclusively with [^111In]Q (without blocking) and the determined uptake was used as reference value (100%) to normalize the observed changes in tumor uptake in blocking experiments.
All of these probes include H-phenyl-, pyrimidyl-phenyl-, or bis(pyridyl)-Tz-scaffolds with second-order rate constants for the reaction with TCO of >70 M 1 s 1 (1,4-dioxane, 25° C.) or of >39,000 M 1 s 1 (DPBS, 37° C.) (cf. Table 5). Next, potential correlations between the blocking effect, the c log D7.4 and the TPSA, as well as IEDDA reactivity were investigated. […] However, a distinct relationship between c log D7.4 values and the blocking effect was evidently observed when comparing Tz-derivatives with similar IEDDA reactivity (FIG. 16C, 16D). For all Tz-scaffolds a Pearson's correlation coefficient >0.78 was found. […] The blocking effect of non-radiolabeled Tz was determined as the change in tumor uptake of [111 In]Q 22 h p.i. Each Tz was administered 1 h prior to [111 In]Q and the uptake normalized to a group of animals were no blocking was performed (control). Data represent mean from n=3 mice/group. Correlation of blocking effect and c log D7.4 for Tz-derivatives with similar IEDDA reactivity (as shown in FIGS. 16C and D) where data was fitted to exponential growth equation Y=Y0 ekx (dotted line). The statistical analysis of the correlation between tumor uptake and c log D7.4 for the different groups of Tz-derivatives (shown in Table 7) was obtained by Pearson's correlation coefficient (r) which describes the goodness of fit between the blocking effect and c log D7.4. Notes: a Reaction of representative Tz with unsubstituted TCO; “Reaction of representative Tz with TCO-PEG4;” Measured for Tz-scaffold A only; n.d.=not determined.

[5] = Second-order rate constants by stopped-flow spectrophotometry, unsubstituted TCO in 1,4-dioxane at 25° C.; type: physicochemical; conditions: value of the Tz-scaffold: representative tetrazine with unsubstituted TCO, n ≥ 4
Procedure: Reaction kinetics of the Tz-derivatives were determined by pseudo-first order measurements in dioxane at 25.0±0.1° C. or PBS at 27.0±0.1° ° C. in a SX20 stopped flow photometer (Applied Photophysics). The pseudo first order rate constant was determined by linearization of the decay curve followed by linear fitting. The second order rate constant was calculated from the pseudo-first order rate constant.
A structurally diverse library of 45 Tz-derivatives was prepared (FIG. 15), covering a wide spectrum of physicochemical properties, in particular calculated TPSAs between 60-350 Å2 and different lipophilicities, with calculated log D7.4 values (c log D7.4) ranging from approximately −7.0 to 2.5 (Table 5). […] The distribution coefficient at physiological pH (log D7.4) and TPSA were calculated using the software Chemicalize. Tetrazines conjugated to DOTA were calculated with chelated trivalent cations, Tzs with other chelators with bivalent cations. Second-order rate constants for the Tz scaffolds A-L were determined by stopped-flow spectrophotometry (n≥4), monitoring the reaction of representative tetrazines with unsubstituted trans-cyclooctene (TCO) at 25° C. in 1,4-dioxane, and with TCO-PEG4 (modified TCO-5ax-OH, ‘minor-TCO’) in Dulbecco's phosphate buffered saline (DBPS) at 37° C. n≥3.

Compound	Shelf stability in PBS, intact ([1]; 2 nmol/mL) [%]	Stability in PBS (degradation) [1]	Blocking effect (ranking) [2]	Rate constant (DPBS, 37° C.) [3]	% Tumor Uptake of [^111In]46 after blocking ([4]; tumor uptake 22 h p.i. normalized to unblocked group (100%)) [%]	Blocking effect [4] [%]	Blocking effect ([4]; listed as non-radioactive precursor of [^111In]Q) [%]	Rate constant (1,4-dioxane, 25° C.) [5] [M⁻¹ s⁻¹]
O=C(O)CN(CC(=O)O)Cc1cc(F)cc(-c2nncnn2)c1 [UB-108, 1-Carboxy-N-(carboxymethyl)-N-(3-fluoro-5-(1,2,4,5-tetrazin-3-yl)benzyl)methanaminium 2,2,2-trifluoroacetate]	98	did not show degradation	best blocking effect	–	–	–	–	–
O=C(O)CNCc1cc(F)cc(-c2nncnn2)c1 [UB-137, 1-Carboxy-N-(3-fluoro-5-(1,2,4,5-tetrazin-3-yl)benzyl)methanaminium 2,2,2-trifluoroacetate]	–	did not show degradation	best blocking effect	–	–	–	–	–
O=C(O)CN1CCN(CC(=O)O)CCN(CC(=O)NCCOCCOCCOCCOCCOCCOCCOCCOCCOCCOCCOCCNC(=O)CCCC(=O)Nc2ccc(-c3nnc(-c4ccccn4)nn3)nc2)CCN(CC(=O)O)CC1 [Q, reference compound]	–	–	–	73,000 M^−1 s^−1	1	99	≥ 99	230
